Assay results from article PMC7549214 (Malaria Journal, 2020).
Like-named read-outs stand apart in the source and are kept apart here.

Tests used:
in vitro = in vitro ADME; conditions: human, plasma
human HDAC2 = human HDAC2 (Homo sapiens, UniProt Q92769); experiment: Isoform selectivity, recombinant HDAC isoforms; assay type: biochemical; conditions: single experiment assays
Experimental: Isoform selectivity was tested using recombinant HDAC isoforms (Biomol, USA).

female gametocytes = experiment: Female gametocyte functional viability assay; assay type: cell-based; conditions: Plasmodium falciparum
Microsomal stability = assay type: in vitro ADME, rat; conditions: RLM, Test Conc. 10 µM
Cam3.I (MRA1240) = experiment: microbe, parasite or virus in culture; assay type: cell-based; conditions: Plasmodium falciparum
[1] = tested on: Plasmodium falciparum 3D7; experiment: Plasmodium falciparum asexual blood-stage (ABS) assay; assay type: cell-based; conditions: Plasmodium falciparum, 3D7
Experimental: Plasmodium falciparum 3D7 strain was used for the P. falciparum asexual blood-stage (ABS) assay, for which the cells were resuscitated from the stabilate and maintained at 5% haematocrit. Red blood cells obtained from the hospital were used to maintain the culture at 1% parasitaemia while screening.
Plasmodium falciparum 3D7 cells were used as a target strain for the assay. Mefloquine (Sigma-Aldrich) was used as a standard inhibitor. At day 1, […] of 10 mM mefloquine was added to columns 12 and 24 of the sterile 384-well black, clear-bottom, cell culture assay plates followed by compound curves which were added using Echo. The P. falciparum 3D7 cells were counted and 20 ml of culture was prepared at 5% haematocrit, 0.3% parasitaemia (as one batch, i.e., 12 plates, prepare 260 ml, to allow for WellMate prime volume) for each plate. From this, 50 µl of culture was added to all wells on all plates using WellMate with small bore tubing on full (S-1) speed. The plates were placed on the bottom shelf of the incubator, with a maximum stack height of 4 plates, preferring the front of the shelf and were incubated for 72 h at 37 °C in an atmosphere of special gas mix (1% O2, 3% CO2, balance N2).
. Ten μl of the prepared buffer was added to each well on each of the assay plates and incubated overnight in the dark at room temperature. The plates were read on Victor plate reader using ‘384sybrgreen’ protocol (excitation 485 nm, emission 528 nm) after which the plate contents were aspirated into 5% Virkon, and disposed of after autoclaving. Percentage inhibition for each test compound was calculated using the following equation: %Inhibition=100-TEST COMPOUND-BLANK/NO INHIBITION-BLANK∗100)
EC50 values for standard inhibitors were determined using non-linear regression curve-fitting within Activity Base data analysis template.

[2] = Single dose pharmacokinetics in Balb/C mice; assay type: in vivo; conditions: normal Balb/C mice; for half-life / AUC(0-t) / Cmax / Tmax: male, mouse, plasma; for half-life: BALB/c, 50 mg/kg
Experimental: Female […] mice (n = 3) aged 7-8 weeks and weighing around 20 to 22 g were used for experimentation after a minimum 7 days of acclimation. Male BALB/c mice (n = 3) aged 8-10 weeks and weighing around 20 to 22 g were also used for experimentation after a minimum 7 days of acclimation. […] Feed was offered 2 h post-dose. Under mild isofluorane […], blood samples were collected by retro-orbital route into labelled centrifuge tubes containing K2EDTA anticoagulant at a concentration of 2 mg/mL of blood during the next 24 h post-dose. Collected blood samples were centrifuged at 4000 rpm for 10 min, and harvested plasma samples were stored at - 80 °C until analysis.

[3] = tested on: human HDAC (HeLa nuclear extract); experiment: HDAC activity screening, fluorescence-based, HeLa nuclear extract; assay type: biochemical
Experimental: HeLa nuclear extract was used as the enzyme source. […] The assay was performed in 96-well black microplates, and the total volume of the assay was set at 100 µl. […] The enzyme mixture was prepared by adding […] of the diluted enzyme (HeLa nuclear extract) to […] of HDAC buffer. From the enzyme mixture, 40 µl was taken and mixed with 10 µl of test compound (final concentration from 0.01 to 10 µM) or vehicle (control). The final mixture (50 µl) was added to each well which was then pre-incubated at 37 °C for 10 min. The HDAC reaction was started by adding 50 µl of HDAC substrate: […] The plate was incubated at 37 °C for 45 min. Trypsin stop solution (50 µl) was added to the well, and the plate was further incubated at 37 °C for 15 min to stop the reaction. The release of AMC was monitored by measuring the fluorescence at an excitation wavelength of 360 nm and an emission wavelength of 460 nm. Buffer and substrate alone served as blank.

Plasma protein binding = assay type: in vitro ADME; conditions: monkey, read-out: Plasma protein binding (% bound)
male gametocytes = experiment: Male gametocyte functional viability assay; assay type: cell-based; conditions: Plasmodium falciparum
Experimental: Gametocyte cultures were tested for functional viability and maturity after 14 days. Testing functional viability was done by quantifying male gametocyte formation, which was carried out by withdrawing 200 μl of culture. Following this, culture was centrifuged, and the pellet was resuspended in 5 μl ookinete medium (RPMI medium with 25 mM HEPES, 50 mg/l hypoxanthine, 2 g/l sodium bicarbonate, 100 μM xanthurenic acid, and 10% A^+ human serum). The culture was observed under a microscope. […] The plates were then incubated at 37 °C for 24 h. Gamete formation was induced on day 15 and observed under the microscope following the method described by Ruecker et al.. The assay was performed using four independent biological replicates.

[4] = Repeated dose 14-day toxicokinetics (TK) study; assay type: in vivo, Sprague–Dawley rats; conditions: for Cmax / half-life / AUC(0-inf) / AUC(0-t) / Tmax: Sprague-Dawley, rat, po, 100 mg/kg
THP-1 = experiment: Cytotoxicity; assay type: cell-based
Cytotoxicity = assay type: cell-based; conditions: human, THP-1 cells
[5] = both sexes, in vivo, rats, 100 mg/kg body weight
[6] = female, in vivo, female, day 1, 100 mg/kg bw
[7] = female, in vivo, female, day 14, 100 mg/kg bw
[8] = male, in vivo, male, day 1, 100 mg/kg bw
[9] = male, in vivo, male, day 14, 100 mg/kg bw

human HDAC2, sequence (Q92769 whole entry, canonical isoform): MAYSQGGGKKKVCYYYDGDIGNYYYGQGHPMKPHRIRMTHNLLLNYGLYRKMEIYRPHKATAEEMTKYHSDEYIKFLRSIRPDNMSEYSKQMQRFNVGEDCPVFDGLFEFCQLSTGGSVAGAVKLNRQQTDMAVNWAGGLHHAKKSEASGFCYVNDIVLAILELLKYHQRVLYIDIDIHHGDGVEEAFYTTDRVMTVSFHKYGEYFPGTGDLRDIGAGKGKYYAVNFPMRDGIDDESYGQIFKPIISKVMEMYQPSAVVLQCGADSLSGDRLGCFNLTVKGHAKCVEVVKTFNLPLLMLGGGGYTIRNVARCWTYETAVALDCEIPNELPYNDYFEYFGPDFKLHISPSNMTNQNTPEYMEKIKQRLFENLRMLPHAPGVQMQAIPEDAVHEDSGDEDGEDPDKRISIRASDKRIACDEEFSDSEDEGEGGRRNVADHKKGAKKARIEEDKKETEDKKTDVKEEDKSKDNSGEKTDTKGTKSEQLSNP

O=C(NO)c1ccc(Cn2cc(-c3ccc(CN4CCCC4)cc3)nn2)cc1 [FNDR-20123]
remaining at 4 h (in vitro): 98.9% | IC50 (human HDAC2): 29 nM | IC50 (female gametocytes): > 5000 nM | Microsomal stability (% remaining at 120 min) (Microsomal stability): 74.56% | remaining at 2 h, 10 µM (Microsomal stability; rat, liver microsomes, read-out: Microsomal stability (% remaining at 120 min)): > 75% | IC50 (Cam3.I (MRA1240)): 22.1 nM | IC50 ([1]; read-out: Anti-malarial IC50): 40 nM | IC50 ([1]; read-out: Anti-malarial activity Asexual Blood Stage IC50): 42 nM | half-life ([2]; im, intramuscular): 8.72 h | half-life ([2]; po): 2 h | half-life ([2]; sc, subcutaneous): 9.21 h | AUC(0-t) ([2]; im, intramuscular, 50 mg/Kg): 7220 ng·h/mL | Cmax ([2]; im, intramuscular, 50 mg/Kg): 15700 ng/mL | Tmax ([2]; im, intramuscular, 50 mg/Kg): 0.08 h | AUC(0-t) ([2]; sc, subcutaneous, 50 mg/Kg): 11000 ng·h/mL | Cmax ([2]; sc, subcutaneous, 50 mg/Kg): 14000 ng/mL | Tmax ([2]; sc, subcutaneous, 50 mg/Kg): 0.08 h | AUC(0-t) ([2]; oral, 50 mg/Kg): 327 ng·h/mL | Cmax ([2]; oral, 50 mg/Kg): 184 ng/mL | Tmax ([2]; oral, 50 mg/Kg): 1 h | t1/2 ([2]; oral, 50 mg/Kg): 2.02 h | Human HDAC % inhibition @1μM ([3]; 1μM): 95% | IC50 ([3]; HeLa nuclear extract, read-out: Human HDAC IC50): 3 nM | IC50 ([3]; single experiment assays, read-out: IC50 HeLa nuclear extract): 3 nM | fraction unbound (Plasma protein binding): > 0.8 | IC50 (male gametocytes): 190 nM | Accumulation (toxicokinetic profile) ([4]; 100 mg/kg bw oral gavage, 14 days): no accumulation | Cmax [4, 5]: 1100 nM | half-life [4, 5]: 5.5 h | half-life ([4]; female, blood, female, day 1, 100 mg/kg bw): 3.21 ± 0.41 h | AUC(0-inf) [4, 6]: 448 ± 113 ng·h/mL | AUC(0-t) [4, 6]: 345 ± 71.6 ng·h/mL | Cmax [4, 6]: 229 ± 69.3 ng/mL | Tmax [4, 6]: 0.28 ± 0.21 h | AUC(0-inf) [4, 7]: 573 ± 23.1 ng·h/mL | AUC(0-t) [4, 7]: 480 ± 49.7 ng·h/mL | Cmax [4, 7]: 207 ± 36.1 ng/mL | Tmax [4, 7]: 0.14 ± 0.1 h | half-life ([4]; male, blood, male, day 1, 100 mg/kg bw): 5.72 ± 4.1 h | half-life ([4]; male, blood, male, day 14, 100 mg/kg bw): 2.3 ± 0.55 h | AUC(0-inf) [4, 8]: 1280 ± 282 ng·h/mL | AUC(0-t) [4, 8]: 712 ± 234 ng·h/mL | Cmax [4, 8]: 420 ± 174 ng/mL | Tmax [4, 8]: 0.33 ± 0.14 h | AUC(0-inf) [4, 9]: 1080 ± 216 ng·h/mL | AUC(0-t) [4, 9]: 957 ± 181 ng·h/mL | Cmax [4, 9]: 703 ± 362 ng/mL | Tmax [4, 9]: 0.19 ± 0.1 h | Cytotoxicity to THP-1 cell line (THP-1): negligible cytotoxicity | IC50 (Cytotoxicity): 114000 nM
